Test results published in ChEMBL document CHEMBL6127049, “Discovery of the selective and nanomolar inhibitor of DPP-4 more potent than sitagliptin by structure-guided rational design” (Eur J Med Chem, 2024).
Activity calls are given as the source filed them. The calls are words filed in the database; no cut-off is given here.

Tests used:
[1] = test system: Rattus norvegicus; assay: Antihyperlipidemic effect in STZ-induced type 2 diabetes male Wistar albino rat model assessed as HDL level at 0.5 mg/kg, po measured after 4 weeks (reference value: 25.54 +/- 2.62 mg/dL); assay type: functional
[2] = test system: Rattus norvegicus; assay: Antihyperlipidemic effect in STZ-induced type 2 diabetes male Wistar albino rat model assessed as LDL level at 0.5 mg/kg, po measured after 4 weeks (reference value: 184.65 +/- 4.57 mg/dL); assay type: functional
[3] = test system: Rattus norvegicus; assay: Antihyperlipidemic effect in STZ-induced type 2 diabetes male Wistar albino rat model assessed as triglyceride level at 0.5 mg/kg, po measured after 4 weeks (reference value: 190.23 +/- 4.37 mg/dL); assay type: functional
[4] = test system: Rattus norvegicus; assay: Antihyperlipidemic effect in STZ-induced type 2 diabetes male Wistar albino rat model assessed as total cholesterol level at 0.5 mg/kg, po measured after 4 weeks (reference value: 227.04 +/- 4.10 mg/dL); assay type: functional
[5] = test system: Rattus norvegicus; assay: Antihyperlipidemic effect in STZ-induced type 2 diabetes male Wistar albino rat model assessed as HDL level at 10 mg/kg, po measured after 4 weeks (reference value: 25.54 +/- 2.62 mg/dL); assay type: functional
[6] = test system: Rattus norvegicus; assay: Antihyperlipidemic effect in STZ-induced type 2 diabetes male Wistar albino rat model assessed as total cholesterol level at 20 mg/kg, po measured after 4 weeks (reference value: 227.04 +/- 4.10 mg/dL); assay type: functional
[7] = test system: Rattus norvegicus; assay: Antihyperlipidemic effect in STZ-induced type 2 diabetes male Wistar albino rat model assessed as total cholesterol level at 10 mg/kg, po measured after 4 weeks (reference value: 227.04 +/- 4.10 mg/dL); assay type: functional
[8] = Acute toxicity in Balb/C mouse assessed as morphological changes in nose at 1250 to 2000 mg/kg, po; assay type: organism-based; conditions: in vivo, dose 1250-2000 mg/kg
[9] = test system: Rattus norvegicus; assay: Antihyperlipidemic effect in STZ-induced type 2 diabetes male Wistar albino rat model assessed as triglyceride level at 20 mg/kg, po measured after 4 weeks (reference value: 190.23 +/- 4.37 mg/dL); assay type: functional
[10] = Acute toxicity in Balb/C mouse assessed as morphological changes in convulsions at 1250 to 2000 mg/kg, po; assay type: organism-based; conditions: in vivo, dose 1250-2000 mg/kg
[11] = test system: Rattus norvegicus; assay: Reduction of serum glutamate oxaloacetate transaminase (SGOT) level in STZ-induced type 2 diabetes male Wistar albino rat model at 20 mg/kg, po measured after 4 weeks by hepatic function test; assay type: functional, organism-based
[12] = test system: Rattus norvegicus; assay: Antihyperlipidemic effect in STZ-induced type 2 diabetes male Wistar albino rat model assessed as triglyceride level at 10 mg/kg, po measured after 4 weeks (reference value: 190.23 +/- 4.37 mg/dL); assay type: functional
[13] = test system: Rattus norvegicus; assay: Reduction of alkaline phosphatase (ALP) level in STZ-induced type 2 diabetes male Wistar albino rat model at 10 mg/kg, po measured after 4 weeks by hepatic function test; assay type: functional, organism-based
[14] = test system: Rattus norvegicus; assay: Anti-diabetic activity in normal Wistar rat model assessed as blood glucose level at 10 mg/kg, po followed by treated administered 3 mg/kg orally measured immediately after administration by Oral glucose tolerance test (reference value: 105.12 mg/dL); assay type: functional
[15] = species: Rattus norvegicus; assay: Anti-diabetic activity in STZ-induced type 2 diabetes male Wistar albino rat model assessed as fasting blood glucose level measured on day 28; assay type: functional
[16] = test system: Rattus norvegicus; assay: Anti-diabetic activity in normal Wistar rat model assessed as blood glucose level at 20 mg/kg, po followed by treated administered 3 mg/kg orally measured immediately after administration by Oral glucose tolerance test (reference value: 105.12 mg/dL); assay type: functional
[17] = test system: Rattus norvegicus; assay: Anti-diabetic activity in normal Wistar rat model assessed as blood glucose level at 10 mg/kg, po followed by treated administered 3 mg/kg orally measured after 30 mins by Oral glucose tolerance test (reference value: […] 176.14 + /- 4.04 mg/dL); assay type: functional; conditions: 0.5 h
[18] = test system: Rattus norvegicus; assay: Reduction of serum glutamate pyruvate transaminase (SGPT) level in STZ-induced type 2 diabetes male Wistar albino rat model at 20 mg/kg, po measured after 4 weeks by hepatic function test; assay type: functional, organism-based
[19] = test system: Rattus norvegicus; assay: Anti-diabetic activity in normal Wistar rat model assessed as blood glucose level at 20 mg/kg, po followed by treated administered 3 mg/kg orally measured after 30 mins by Oral glucose tolerance test (reference value: 176.14 + /- 4.04 mg/dL); assay type: functional; conditions: 0.5 h
[20] = test system: Rattus norvegicus; assay: Reduction of serum glutamate oxaloacetate transaminase (SGOT) level in STZ-induced type 2 diabetes male Wistar albino rat model at 10 mg/kg, po measured after 4 weeks by hepatic function test; assay type: functional, organism-based
[21] = test system: Rattus norvegicus; assay: Anti-diabetic activity in normal Wistar rat model assessed as blood glucose level at 20 mg/kg, po followed by treated administered 3 mg/kg orally measured after 90 mins by Oral glucose tolerance test (reference value: 134.11 + /- 4.64 mg/dL); assay type: functional; conditions: 1.5 h
[22] = Acute toxicity in Balb/C mouse assessed as morphological changes in tremors at 1250 to 2000 mg/kg, po; assay type: organism-based; conditions: in vivo, dose 1250-2000 mg/kg
[23] = test system: Rattus norvegicus; assay: Anti-diabetic activity in normal Wistar rat model assessed as blood glucose level at 10 mg/kg, po followed by treated administered 3 mg/kg orally measured after 120 mins by Oral glucose tolerance test (reference value: 126.5 + /- 3.90 mg/dL); assay type: functional; conditions: 2 h
[24] = test system: Rattus norvegicus; assay: Anti-diabetic activity in normal Wistar rat model assessed as blood glucose level at 20 mg/kg, po followed by treated administered 3 mg/kg orally measured after 120 mins by Oral glucose tolerance test (reference value: 126.5 + /- 3.90 mg/dL); assay type: functional; conditions: 2 h
[25] = test system: Rattus norvegicus; assay: Anti-diabetic activity in normal Wistar rat model assessed as blood glucose level at 20 mg/kg, po followed by treated administered 3 mg/kg orally measured after 60 mins by Oral glucose tolerance test (reference value: 153.74 + /- 3.94 mg/dL); assay type: functional; conditions: 1 h
[26] = test system: Rattus norvegicus; assay: Reduction of serum glutamate pyruvate transaminase (SGPT) level in STZ-induced type 2 diabetes male Wistar albino rat model at 10 mg/kg, po measured after 4 weeks by hepatic function test; assay type: functional, organism-based
[27] = species: Rattus norvegicus; assay: Anti-diabetic activity in STZ-induced type 2 diabetes male Wistar albino rat model assessed as fasting blood glucose level measured on day 1; assay type: functional
[28] = Acute toxicity in Balb/C mouse assessed as morphological changes in eyes at 1250 to 2000 mg/kg, po; assay type: organism-based; conditions: in vivo, dose 1250-2000 mg/kg
[29] = target: Dipeptidyl peptidase 9 (Homo sapiens, UniProt Q86TI2); assay: Inhibition of DPP9 (unknown origin) assessed as hydrolysis rate using Gly-pro-p-nitroanilide as substrate measured after 20 mins incubation by […] assay
[30] = Acute toxicity in Balb/C mouse assessed as morphological changes in diarrhea at 1250 to 2000 mg/kg, po; assay type: organism-based; conditions: in vivo, dose 1250-2000 mg/kg
[31] = target: Dipeptidyl peptidase 4 (Homo sapiens, UniProt P27487); assay: Inhibition of DPP4 (unknown origin) assessed as hydrolysis rate using Gly-pro-p-nitroanilide as substrate measured after 20 mins incubation by fluorometric assay
[32] = test system: Rattus norvegicus; assay: Antihyperlipidemic effect in STZ-induced type 2 diabetes male Wistar albino rat model assessed as LDL level at 10 mg/kg, po measured after 4 weeks (reference value: 184.65 +/- 4.57 mg/dL); assay type: functional
[33] = Acute toxicity in Balb/C mouse assessed as morphological changes in unusual behavior at 1250 to 2000 mg/kg, po; assay type: organism-based; conditions: in vivo, dose 1250-2000 mg/kg
[34] = Acute toxicity in Balb/C mouse assessed as changes in general appearance at 1250 to 2000 mg/kg, po; assay type: organism-based; conditions: in vivo, dose 1250-2000 mg/kg
[35] = test system: Rattus norvegicus; assay: Antihyperlipidemic effect in STZ-induced type 2 diabetes male Wistar albino rat model assessed as HDL level at 20 mg/kg, po measured after 4 weeks (reference value: 25.54 +/- 2.62 mg/dL); assay type: functional
[36] = test system: Rattus norvegicus; assay: Antihyperlipidemic effect in STZ-induced type 2 diabetes male Wistar albino rat model assessed as LDL level at 20 mg/kg, po measured after 4 weeks (reference value: 184.65 +/- 4.57 mg/dL); assay type: functional
[37] = Acute toxicity in Balb/C mouse assessed as morphological changes in skin at 1250 to 2000 mg/kg, po; assay type: organism-based; conditions: in vivo, dose 1250-2000 mg/kg
[38] = target: Dipeptidyl peptidase 8 (Homo sapiens, UniProt Q6V1X1); assay: Inhibition of DPP8 (unknown origin) assessed as hydrolysis rate using Gly-pro-p-nitroanilide as substrate measured after 20 mins incubation by […] assay
[39] = test system: Rattus norvegicus; assay: Reduction of alkaline phosphatase (ALP) level in STZ-induced type 2 diabetes male Wistar albino rat model at 20 mg/kg, po measured after 4 weeks by hepatic function test; assay type: functional, organism-based
[40] = Acute toxicity in Balb/C mouse assessed as morphological changes in salvation at 1250 to 2000 mg/kg, po; assay type: organism-based; conditions: in vivo, dose 1250-2000 mg/kg
[41] = test system: Rattus norvegicus; assay: Anti-diabetic activity in normal Wistar rat model assessed as blood glucose level at 10 mg/kg, po followed by treated administered 3 mg/kg orally measured after 90 mins by Oral glucose tolerance test (reference value: 134.11 + /- 4.64 mg/dL); assay type: functional; conditions: 1.5 h
[42] = test system: Rattus norvegicus; assay: Anti-diabetic activity in normal Wistar rat model assessed as blood glucose level at 10 mg/kg, po followed by treated administered 3 mg/kg orally measured after 60 mins by Oral glucose tolerance test (reference value: 153.74 + /- 3.94 mg/dL); assay type: functional; conditions: 1 h
[43] = Acute toxicity in Balb/C mouse assessed as morphological changes in fur at 1250 to 2000 mg/kg, po; assay type: organism-based; conditions: in vivo, dose 1250-2000 mg/kg
[44] = test system: Rattus norvegicus; assay: Reduction of serum creatinine level in STZ-induced type 2 diabetes male Wistar albino rat model at 10 mg/kg, po measured after 4 weeks by hepatic function test; assay type: functional, organism-based
[45] = test system: Rattus norvegicus; assay: Reduction of serum creatinine level in STZ-induced type 2 diabetes male Wistar albino rat model at 20 mg/kg, po measured after 4 weeks by hepatic function test; assay type: functional, organism-based

Chain of Dipeptidyl peptidase 4 (P27487 whole entry): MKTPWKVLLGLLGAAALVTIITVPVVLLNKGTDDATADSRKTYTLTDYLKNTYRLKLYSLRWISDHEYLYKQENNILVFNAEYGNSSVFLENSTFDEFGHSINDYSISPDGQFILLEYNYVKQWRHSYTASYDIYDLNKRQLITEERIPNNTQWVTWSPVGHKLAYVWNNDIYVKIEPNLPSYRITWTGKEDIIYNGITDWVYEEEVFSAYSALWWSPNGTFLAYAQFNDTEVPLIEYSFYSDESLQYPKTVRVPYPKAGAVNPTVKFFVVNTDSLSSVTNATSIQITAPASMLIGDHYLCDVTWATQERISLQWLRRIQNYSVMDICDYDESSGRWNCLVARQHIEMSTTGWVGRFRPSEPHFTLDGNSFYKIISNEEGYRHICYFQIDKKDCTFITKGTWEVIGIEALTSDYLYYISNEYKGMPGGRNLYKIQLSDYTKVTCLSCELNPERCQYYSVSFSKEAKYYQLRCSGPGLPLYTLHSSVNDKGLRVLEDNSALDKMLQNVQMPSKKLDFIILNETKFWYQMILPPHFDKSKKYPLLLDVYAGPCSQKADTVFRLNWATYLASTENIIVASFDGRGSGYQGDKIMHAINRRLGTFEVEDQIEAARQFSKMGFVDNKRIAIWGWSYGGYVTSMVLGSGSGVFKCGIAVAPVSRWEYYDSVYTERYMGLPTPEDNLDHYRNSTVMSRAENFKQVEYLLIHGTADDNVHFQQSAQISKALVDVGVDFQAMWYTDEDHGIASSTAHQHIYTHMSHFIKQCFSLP
Chain of Dipeptidyl peptidase 8 (Q6V1X1 whole entry): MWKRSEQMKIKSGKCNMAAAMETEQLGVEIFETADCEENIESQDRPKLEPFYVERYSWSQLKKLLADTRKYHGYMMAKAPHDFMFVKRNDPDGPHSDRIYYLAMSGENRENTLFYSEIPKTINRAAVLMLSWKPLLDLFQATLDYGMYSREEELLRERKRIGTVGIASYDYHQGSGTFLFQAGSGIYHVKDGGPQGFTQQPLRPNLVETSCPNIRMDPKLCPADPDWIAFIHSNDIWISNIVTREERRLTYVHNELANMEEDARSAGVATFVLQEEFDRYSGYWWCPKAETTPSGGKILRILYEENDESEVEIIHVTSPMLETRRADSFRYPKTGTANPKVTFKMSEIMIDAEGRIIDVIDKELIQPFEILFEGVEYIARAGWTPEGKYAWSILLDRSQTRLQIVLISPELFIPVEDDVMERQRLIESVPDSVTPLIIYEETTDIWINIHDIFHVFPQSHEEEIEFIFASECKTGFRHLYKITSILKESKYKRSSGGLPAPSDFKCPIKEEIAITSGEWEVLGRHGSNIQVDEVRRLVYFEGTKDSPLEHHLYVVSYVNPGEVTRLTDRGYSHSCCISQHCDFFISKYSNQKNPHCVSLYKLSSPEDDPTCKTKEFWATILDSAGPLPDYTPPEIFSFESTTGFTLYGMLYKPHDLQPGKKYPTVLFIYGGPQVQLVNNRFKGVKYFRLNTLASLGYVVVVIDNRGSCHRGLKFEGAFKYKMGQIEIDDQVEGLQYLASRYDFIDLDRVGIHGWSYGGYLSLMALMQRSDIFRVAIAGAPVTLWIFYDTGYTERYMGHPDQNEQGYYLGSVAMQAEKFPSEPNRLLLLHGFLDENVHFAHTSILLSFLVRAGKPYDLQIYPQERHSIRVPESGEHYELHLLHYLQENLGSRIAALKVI
Chain of Dipeptidyl peptidase 9 (Q86TI2 whole entry): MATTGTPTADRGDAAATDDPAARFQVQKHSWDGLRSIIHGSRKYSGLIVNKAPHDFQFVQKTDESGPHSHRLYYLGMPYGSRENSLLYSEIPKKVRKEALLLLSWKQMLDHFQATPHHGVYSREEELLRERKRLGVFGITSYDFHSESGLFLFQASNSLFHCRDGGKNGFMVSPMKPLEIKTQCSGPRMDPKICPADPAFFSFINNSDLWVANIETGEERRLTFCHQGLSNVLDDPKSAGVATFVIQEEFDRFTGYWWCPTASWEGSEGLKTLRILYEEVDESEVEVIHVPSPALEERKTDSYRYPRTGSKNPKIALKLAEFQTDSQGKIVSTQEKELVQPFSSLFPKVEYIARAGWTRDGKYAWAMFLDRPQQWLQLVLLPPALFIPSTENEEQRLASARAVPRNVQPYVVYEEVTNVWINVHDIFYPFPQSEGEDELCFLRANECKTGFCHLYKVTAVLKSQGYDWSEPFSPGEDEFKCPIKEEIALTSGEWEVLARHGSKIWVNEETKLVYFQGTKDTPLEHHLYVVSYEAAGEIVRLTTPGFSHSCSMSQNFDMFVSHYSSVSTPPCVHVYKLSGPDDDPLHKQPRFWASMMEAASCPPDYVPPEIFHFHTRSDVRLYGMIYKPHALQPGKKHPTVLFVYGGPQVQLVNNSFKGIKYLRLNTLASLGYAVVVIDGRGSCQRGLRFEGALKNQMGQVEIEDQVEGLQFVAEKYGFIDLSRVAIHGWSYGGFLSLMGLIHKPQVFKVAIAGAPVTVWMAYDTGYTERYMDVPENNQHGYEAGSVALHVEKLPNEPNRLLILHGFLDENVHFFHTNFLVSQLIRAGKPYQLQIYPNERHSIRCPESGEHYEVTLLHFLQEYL

`COc1ccc(Cl)cc1C(=O)NCCc1ccc(S(=O)(=O)NC(=O)NC2CCCCC2)cc1` [GLYBURIDE] showed an Activity [1] of 66.6 mg/dL, an Activity [2] of 97.55 mg/dL and an Activity [3] of 106.87 mg/dL. It also gave an Activity [4] of 123.65 mg/dL.
`CC1=C(C(=O)O)C(c2ccc(F)c(F)c2)N=C(N)N1C(=O)CN1Cc2cn(S(C)(=O)=O)nc2C1` (stereo not given) showed an Activity [5] of 45.9 mg/dL, an Activity [6] of 138.76 mg/dL and an Activity [7] of 152.34 mg/dL. The Activity [8] was “Non-Toxic”, the Activity [9] was 117.23 mg/dL and the Activity [10] was “Non-Toxic”. The Activity [11] was “Active”, the Activity [12] was 146.34 mg/dL and the Activity [13] was “Active”. The Activity [14] was 103.52 mg/dL, the Activity [15] was 141 mg/dL and the Activity [16] was 100.83 mg/dL. The Activity [17] was 119.65 mg/dL, the Activity [18] was “Active” and the Activity [19] was 116.78 mg/dL. The Activity [20] was “Active”, the Activity [21] was 116.56 mg/dL and the Activity [22] was “Non-Toxic”. The Activity [23] was 108.68 mg/dL, the Activity [24] was 109.75 mg/dL and the Activity [25] was 114.26 mg/dL. For the same molecule, the Activity [26] was “Active”, the Activity [27] was 291 mg/dL and the Activity [28] was “Non-Toxic”. For the same molecule, the IC50 [29] was 2.84 µM, the Activity [30] was “Non-Toxic” and the IC50 [31] was 0.002 µM. For the same molecule, the Activity [32] was 131.65 mg/dL, the Activity [33] was “Non-Toxic” and the Activity [34] was “Non-Toxic”. The Activity [35] was 53.56 mg/dL, the Activity [36] was 114.67 mg/dL and the Activity [37] was “Non-Toxic”. The IC50 [38] was 3.32 µM, the Activity [39] was “Active” and the Activity [40] was “Non-Toxic”. For the same molecule, the Activity [41] was 110.22 mg/dL, the Activity [42] was 121.54 mg/dL and the Activity [43] was “Non-Toxic”.
For `CC1=C(C(=O)O)C(c2ccc(F)c(F)c2)N=C(N)N1C(=O)CN1CCn2c(nnc2C(F)(F)F)C1` (stereo not given), the Activity [44] was “Active”, the Activity [5] was 48.67 mg/dL and the Activity [6] was 134.27 mg/dL. The Activity [7] was 148.1 mg/dL, the Activity [9] was 113.65 mg/dL and the Activity [11] was “Active”. For the same molecule, the Activity [12] was 141.45 mg/dL, the Activity [13] was “Active” and the Activity [14] was 103.12 mg/dL. For the same molecule, the Activity [16] was 101.26 mg/dL, the Activity [17] was 117.53 mg/dL and the Activity [18] was “Active”. For the same molecule, the Activity [19] was 114.05 mg/dL, the Activity [20] was “Active” and the Activity [21] was 110.82 mg/dL. For the same molecule, the Activity [23] was 126.68 mg/dL, the Activity [24] was 107.18 mg/dL and the Activity [25] was 112.43 mg/dL. For the same molecule, the Activity [26] was “Active”, the Activity [45] was “Active” and the IC50 [31] was 0.116 µM. It also gave an Activity [32] of 121.78 mg/dL, an Activity [35] of 59.54 mg/dL and an Activity [36] of 105.65 mg/dL. For the same molecule, the Activity [39] was “Active”, the Activity [41] was 134.23 mg/dL and the Activity [42] was 113.74 mg/dL.
